Test results as given in ChEMBL document CHEMBL1154822, “Synthesis and antiproliferative activity of 7-azaindirubin-3'-oxime, a 7-aza isostere of the natural indirubin pharmacophore” (J Nat Prod, 2009).

Columns and labels:
[1] = tested on: BT-549; experiment: Cytotoxicity against human BT549 cells assessed as cell growth at 0.1 uM after 1 to 11 days by MTT assay; type: functional; settings: read-out: Activity
[2] = tested on: SNB-19; experiment: Cytotoxicity against human SNB19 cells assessed as cell growth at 10 uM after 1 to 11 days by MTT assay; type: functional; settings: read-out: Activity
[3] = tested on: NCI-H322M; experiment: Cytotoxicity against human NCI-H322M cells assessed as cell growth at 100 uM after 1 to 11 days by MTT assay; type: functional; settings: read-out: Activity
[4] = tested on: SF-268; experiment: Cytotoxicity against human SF268 cells assessed as cell growth at 10 uM after 1 to 11 days by MTT assay; type: functional; settings: read-out: Activity
[5] = tested on: A549; experiment: Cytotoxicity against human A549 cells after 1 to 11 days by MTT assay; type: functional
[6] = tested on: U-251; experiment: Cytotoxicity against human U251 cells after 1 to 11 days by MTT assay; type: functional
[7] = tested on: RPMI-8226; experiment: Cytotoxicity against human RPMI8226 cells assessed as cell growth at 10 uM after 1 to 11 days by MTT assay; type: functional; settings: read-out: Activity
[8] = tested on: MDA-MB-468; experiment: Cytotoxicity against human MDA-MB-468 cells assessed as cell growth at 0.1 uM after 1 to 11 days by MTT assay; type: functional; settings: read-out: Activity
[9] = tested on: UACC-257; experiment: Cytotoxicity against human UACC257 cells assessed as cell growth at 1 uM after 1 to 11 days by MTT assay; type: functional; settings: read-out: Activity
[10] = tested on: KM12; experiment: Cytotoxicity against human KM12 cells assessed as cell growth at 1 mM after 1 to 11 days by MTT assay; type: functional; settings: read-out: Activity
[11] = tested on: SF-539; experiment: Cytotoxicity against human SF539 cells assessed as cell growth at 1 uM after 1 to 11 days by MTT assay; type: functional; settings: read-out: Activity
[12] = tested on: RPMI-8226; experiment: Cytotoxicity against human RPMI8226 cells assessed as cell growth at 1 uM after 1 to 11 days by MTT assay; type: functional; settings: read-out: Activity
[13] = tested on: NCI-H226; experiment: Cytotoxicity against human NCI-H226 cells assessed as cell growth at 10 uM after 1 to 11 days by MTT assay; type: functional; settings: read-out: Activity
[14] = tested on: 786-0; experiment: Cytotoxicity against human 786-0 cells after 1 to 11 days by MTT assay; type: functional
[15] = tested on: OVCAR-4; experiment: Cytotoxicity against human OVCAR4 cells assessed as cell growth at 1 mM after 1 to 11 days by MTT assay; type: functional; settings: read-out: Activity
[16] = tested on: SNB-75; experiment: Cytotoxicity against human SNB75 cells assessed as cell growth at 10 uM after 1 to 11 days by MTT assay; type: functional; settings: read-out: Activity
[17] = tested on: DU-145; experiment: Cytotoxicity against human DU145 cells after 1 to 11 days by MTT assay; type: functional
[18] = tested on: K562; experiment: Cytotoxicity against human K562 cells assessed as cell growth at 1 uM after 1 to 11 days by MTT assay; type: functional; settings: read-out: Activity
[19] = tested on: SK-MEL-5; experiment: Cytotoxicity against human SK-MEL-5 cells assessed as cell growth at 10 uM after 1 to 11 days by MTT assay; type: functional; settings: read-out: Activity
[20] = tested on: T47D; experiment: Cytotoxicity against human T47D cells assessed as cell growth at 100 uM after 1 to 11 days by MTT assay; type: functional; settings: read-out: Activity
[21] = tested on: COLO 205; experiment: Cytotoxicity against human COLO205 cells assessed as cell growth at 0.1 uM after 1 to 11 days by MTT assay; type: functional; settings: read-out: Activity
[22] = tested on: SR; experiment: Cytotoxicity against human SR cells assessed as cell growth at 100 uM after 1 to 11 days by MTT assay; type: functional; settings: read-out: Activity
[23] = tested on: RPMI-8226; experiment: Cytotoxicity against human RPMI8226 cells assessed as cell growth at 0.1 uM after 1 to 11 days by MTT assay; type: functional; settings: read-out: Activity
[24] = tested on: MDA-MB-468; experiment: Cytotoxicity against human MDA-MB-468 cells assessed as cell growth at 1 uM after 1 to 11 days by MTT assay; type: functional; settings: read-out: Activity
[25] = tested on: MOLT-4; experiment: Cytotoxicity against human MOLT4 cells assessed as cell growth at 1 uM after 1 to 11 days by MTT assay; type: functional; settings: read-out: Activity
[26] = tested on: A549; experiment: Cytotoxicity against human A549 cells assessed as cell growth at 0.1 uM after 1 to 11 days by MTT assay; type: functional; settings: read-out: Activity
[27] = tested on: SK-MEL-28; experiment: Cytotoxicity against human SK-MEL-28 cells after 1 to 11 days by MTT assay; type: functional
[28] = tested on: NCI-H460; experiment: Cytotoxicity against human NCI-H460 cells assessed as cell growth at 1 mM after 1 to 11 days by MTT assay; type: functional; settings: read-out: Activity
[29] = molecular target: Glycogen synthase kinase-3 beta (Homo sapiens) (UniProt P49841); experiment: Inhibition of human GSK3-beta at 3 uM after 40 mins by scintillation counting
[30] = tested on: SW-620; experiment: Cytotoxicity against human SW620 cells after 1 to 11 days by MTT assay; type: functional
[31] = tested on: SF-539; experiment: Cytotoxicity against human SF539 cells assessed as cell growth at 10 uM after 1 to 11 days by MTT assay; type: functional; settings: read-out: Activity
[32] = tested on: 786-0; experiment: Cytotoxicity against human 786-0 cells assessed as cell growth at 0.1 uM after 1 to 11 days by MTT assay; type: functional; settings: read-out: Activity
[33] = tested on: PC-3; experiment: Cytotoxicity against human PC3 cells assessed as cell growth at 100 uM after 1 to 11 days by MTT assay; type: functional; settings: read-out: Activity
[34] = tested on: UACC-257; experiment: Cytotoxicity against human UACC257 cells assessed as cell growth at 100 uM after 1 to 11 days by MTT assay; type: functional; settings: read-out: Activity
[35] = tested on: A498; experiment: Cytotoxicity against human A498 cells assessed as cell growth at 0.1 uM after 1 to 11 days by MTT assay; type: functional; settings: read-out: Activity
[36] = tested on: HCC 2998; experiment: Cytotoxicity against human HCC2998 cells assessed as cell growth at 10 uM after 1 to 11 days by MTT assay; type: functional; settings: read-out: Activity
[37] = Cytotoxicity against human Hs 578T cells assessed as cell growth at 0.1 uM after 1 to 11 days by MTT assay; type: functional; settings: read-out: Activity
[38] = tested on: IGROV-1; experiment: Cytotoxicity against human IGROV1 cells assessed as cell growth at 0.1 uM after 1 to 11 days by MTT assay; type: functional; settings: read-out: Activity
[39] = tested on: 786-0; experiment: Cytotoxicity against human 786-0 cells assessed as cell growth at 1 uM after 1 to 11 days by MTT assay; type: functional; settings: read-out: Activity
[40] = tested on: TK-10; experiment: Cytotoxicity against human TK10 cells after 1 to 11 days by MTT assay; type: functional
[41] = tested on: HCT-15; experiment: Cytotoxicity against human HCT15 cells assessed as cell growth at 100 uM after 1 to 11 days by MTT assay; type: functional; settings: read-out: Activity
[42] = tested on: OVCAR-5; experiment: Cytotoxicity against human OVCAR5 cells assessed as cell growth at 10 uM after 1 to 11 days by MTT assay; type: functional; settings: read-out: Activity
[43] = tested on: MOLT-4; experiment: Cytotoxicity against human MOLT4 cells assessed as cell growth at 100 uM after 1 to 11 days by MTT assay; type: functional; settings: read-out: Activity
[44] = read-out: LC50 (the source's name)

Sequence of Glycogen synthase kinase-3 beta (Homo sapiens) (P49841 whole entry, looked up): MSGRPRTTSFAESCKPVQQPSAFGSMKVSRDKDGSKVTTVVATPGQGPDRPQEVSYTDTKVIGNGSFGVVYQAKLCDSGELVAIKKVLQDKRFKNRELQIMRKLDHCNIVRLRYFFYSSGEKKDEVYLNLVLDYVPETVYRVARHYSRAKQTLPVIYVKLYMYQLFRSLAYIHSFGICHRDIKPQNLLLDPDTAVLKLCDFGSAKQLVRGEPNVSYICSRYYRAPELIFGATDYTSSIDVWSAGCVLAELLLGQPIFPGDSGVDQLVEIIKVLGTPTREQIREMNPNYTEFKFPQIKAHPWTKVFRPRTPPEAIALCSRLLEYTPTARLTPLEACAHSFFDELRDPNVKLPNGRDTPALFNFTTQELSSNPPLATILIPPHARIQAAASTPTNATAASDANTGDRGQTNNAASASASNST

`O=C1Nc2ncccc2/C1=C1/Nc2ccccc2/C1=N\O` gave a growth at 0.1 µM [1] of 89%, a growth at 10 µM [2] of 94% and a growth at 100 µM [3] of 8%. The growth at 10 µM [4] was 91%, the GI50 [5] was 3.5 µM and the TGI [5] was > 100 µM. For the same molecule, the CC50 [5, 44] was > 100 µM, the GI50 [6] was > 100 µM and the TGI [6] was > 100 µM. For the same molecule, the CC50 [6, 44] was > 100 µM, the growth at 10 µM [7] was 68% and the growth at 0.1 µM [8] was 77%. The growth at 1 µM [9] was 92%, the growth at 1000 µM [10] was 6% and the growth at 1 µM [11] was 91%. For the same molecule, the growth at 1 µM [12] was 80%, the growth at 10 µM [13] was 53% and the GI50 [14] was 7.46 µM. The CC50 [14, 44] was > 100 µM, the growth at 1000 µM [15] was 39% and the growth at 10 µM [16] was 86%. The GI50 [17] was 5.69 µM, the TGI [17] was > 100 µM and the CC50 [17, 44] was > 100 µM. For the same molecule, the growth at 1 µM [18] was 76%, the growth at 10 µM [19] was 94% and the growth at 100 µM [20] was 16%. For the same molecule, the growth at 0.1 µM [21] was 96%, the growth at 100 µM [22] was 29% and the growth at 0.1 µM [23] was 95%. It also gave a growth at 1 µM [24] of 75%, a growth at 1 µM [25] of 77% and a growth at 0.1 µM [26] of 102%. For the same molecule, the GI50 [27] was 32.8 µM, the TGI [27] was > 100 µM and the CC50 [27, 44] was > 100 µM. The growth at 1000 µM [28] was 32%, the inhibition [29] was 81% and the GI50 [30] was 7.45 µM. For the same molecule, the TGI [30] was > 100 µM, the CC50 [30, 44] was > 100 µM and the growth at 10 µM [31] was 87%. The growth at 0.1 µM [32] was 119%, the growth at 100 µM [33] was 44% and the growth at 100 µM [34] was 79%. For the same molecule, the growth at 0.1 µM [35] was 76%, the growth at 10 µM [36] was 88% and the growth at 0.1 µM [37] was 97%. For the same molecule, the growth at 0.1 µM [38] was 102%, the growth at 1 µM [39] was 115% and the GI50 [40] was 9.72 µM. For the same molecule, the TGI [40] was > 100 µM, the CC50 [40, 44] was > 100 µM and the growth at 100 µM [41] was 27%. It also gave a growth at 10 µM [42] of 94% and a growth at 100 µM [43] of 26%.
